Data: the NIST ThermoML archive (doi:10.1021/je500381c)

Assays:
[1] = refractive index (Na D-line) (dimensionless); conditions: 101.33 kPa, Liquid, Standard Abbe refractometry
[2] = for viscosity / mass density: 100 kPa, Liquid; for mass density: Vibrating tube method; for surface tension liquid-gas: Drop volume
[3] = refractive index (Na D-line) (dimensionless); xn = mol fraction of the nth substance listed; conditions: 100 kPa, Liquid, Standard Abbe refractometry
[4] = xn = mol fraction of the nth substance listed; conditions: for mass density / viscosity: 100 kPa, Liquid; for mass density: Vibrating tube method; for surface tension liquid-gas: Drop volume

CCC12CC3CC(CC(C3)C1)C2 [1-ethyladamantane]
Conditions	mass density, [2] [kg/m3]	refractive index, [1]	surface tension liquid-gas, [2] [mN/m]	viscosity, [2] [mPa·s]
293.15 K	937.11	1.4927	–	6.371
298.15 K	933.58	1.4906	29.87	5.565
303.15 K	929.99	1.4884	–	4.903
308.15 K	926.4	–	–	4.348
313.15 K	922.81	1.4839	–	3.878
318.15 K	919.21	–	–	3.478
323.15 K	915.62	1.4802	–	3.134
328.15 K	912.01	–	–	2.838
333.15 K	908.41	1.4759	–	2.581

CC12CC3CC(C1)CC(C)(C3)C2 [1,3-dimethyladamantane]
Conditions	mass density, [2] [kg/m3]	refractive index, [1]	surface tension liquid-gas, [2] [mN/m]	viscosity, [2] [mPa·s]
293.15 K	901.58	1.4776	–	3.764
298.15 K	898.04	1.4757	27.88	3.345
303.15 K	894.48	1.4734	–	3.004
308.15 K	890.92	–	–	2.711
313.15 K	887.35	1.4691	–	2.458
318.15 K	883.77	–	–	2.237
323.15 K	880.19	1.4651	–	2.045
328.15 K	876.6	–	–	1.876
333.15 K	873.01	1.461	–	1.728

CC12CC3CC(C)(C1)CC(C)(C3)C2 [1,3,5-trimethyladamantane]
Conditions	mass density, [2] [kg/m3]	refractive index, [1]	surface tension liquid-gas, [2] [mN/m]	viscosity, [2] [mPa·s]
293.15 K	887.48	1.4736	–	2.601
298.15 K	883.99	1.4715	26.17	2.338
303.15 K	880.47	1.4695	–	2.118
308.15 K	876.94	–	–	1.93
313.15 K	873.4	1.4649	–	1.765
318.15 K	869.86	–	–	1.621
323.15 K	866.31	1.4612	–	1.494
328.15 K	862.76	–	–	1.384
333.15 K	859.2	1.4568	–	1.284

CCCCCCCO [heptan-1-ol] + CCC12CC3CC(CC(C3)C1)C2
x1 = 1
Conditions	mass density, [4] [kg/m3]	refractive index, [3]	surface tension liquid-gas, [4] [mN/m]	viscosity, [4] [mPa·s]
293.15 K	822.28	1.4236	–	6.887
298.15 K	818.79	1.422	26.23	5.812
303.15 K	815.28	1.4203	–	4.95
308.15 K	811.74	–	–	4.245
313.15 K	808.16	1.4156	–	3.654
318.15 K	804.56	–	–	3.17
323.15 K	800.92	1.4115	–	2.768
328.15 K	797.24	–	–	2.428
333.15 K	793.52	1.4077	–	2.141

CCCCCCCO [heptan-1-ol] + CC12CC3CC(C1)CC(C)(C3)C2
x1 = 1
Conditions	mass density, [4] [kg/m3]	refractive index, [3]	surface tension liquid-gas, [4] [mN/m]	viscosity, [4] [mPa·s]
293.15 K	822.28	1.4236	–	6.887
298.15 K	818.79	1.422	26.23	5.812
303.15 K	815.28	1.4203	–	4.95
308.15 K	811.74	–	–	4.245
313.15 K	808.16	1.4156	–	3.654
318.15 K	804.56	–	–	3.17
323.15 K	800.92	1.4115	–	2.768
328.15 K	797.24	–	–	2.428
333.15 K	793.52	1.4077	–	2.141

OCC1CCCCC1 [cyclohexylmethanol] + CCC12CC3CC(CC(C3)C1)C2
x1 = 1
Conditions	mass density, [4] [kg/m3]	refractive index, [3]	surface tension liquid-gas, [4] [mN/m]	viscosity, [4] [mPa·s]
293.15 K	929.76	1.4629	–	37.75
298.15 K	926.25	1.4612	32.43	28.67
303.15 K	922.71	1.4592	–	22.34
308.15 K	919.14	–	–	17.57
313.15 K	915.53	1.455	–	14.09
318.15 K	911.88	–	–	11.43
323.15 K	908.19	1.4507	–	9.354
328.15 K	904.45	–	–	7.766
333.15 K	900.67	1.4463	–	6.462

OCC1CCCCC1 [cyclohexylmethanol] + CC12CC3CC(C)(C1)CC(C)(C3)C2
x1 = 1
Conditions	mass density, [4] [kg/m3]	refractive index, [3]	surface tension liquid-gas, [4] [mN/m]	viscosity, [4] [mPa·s]
293.15 K	929.76	1.4629	–	37.75
298.15 K	926.25	1.4612	32.43	28.67
303.15 K	922.71	1.4592	–	22.34
308.15 K	919.14	–	–	17.57
313.15 K	915.53	1.455	–	14.09
318.15 K	911.88	–	–	11.43
323.15 K	908.19	1.4507	–	9.354
328.15 K	904.45	–	–	7.766
333.15 K	900.67	1.4463	–	6.462

OCC1CCCCC1 [cyclohexylmethanol]
Conditions	mass density, [2] [kg/m3]	refractive index, [1]	surface tension liquid-gas, [2] [mN/m]	viscosity, [2] [mPa·s]
293.15 K	929.76	1.4629	–	37.75
298.15 K	926.25	1.4612	32.43	28.67
303.15 K	922.71	1.4592	–	22.34
308.15 K	919.14	–	–	17.57
313.15 K	915.53	1.455	–	14.09
318.15 K	911.88	–	–	11.43
323.15 K	908.19	1.4507	–	9.354
328.15 K	904.45	–	–	7.766
333.15 K	900.67	1.4463	–	6.462

CC12CC3CC(C1)CC(C)(C3)C2 [1,3-dimethyladamantane] + OCC1CCCCC1
x2 = 0
Conditions	mass density, [4] [kg/m3]	refractive index, [3]	surface tension liquid-gas, [4] [mN/m]	viscosity, [4] [mPa·s]
293.15 K	901.58	1.4776	–	3.764
298.15 K	898.04	1.4757	27.88	3.345
303.15 K	894.48	1.4734	–	3.004
308.15 K	890.92	–	–	2.711
313.15 K	887.35	1.4691	–	2.458
318.15 K	883.77	–	–	2.237
323.15 K	880.19	1.4651	–	2.045
328.15 K	876.6	–	–	1.876
333.15 K	873.01	1.461	–	1.728

CCCCCCCO [heptan-1-ol] + CC12CC3CC(C)(C1)CC(C)(C3)C2
x1 = 1
Conditions	mass density, [4] [kg/m3]	refractive index, [3]	surface tension liquid-gas, [4] [mN/m]	viscosity, [4] [mPa·s]
293.15 K	822.28	1.4236	–	6.887
298.15 K	818.79	1.422	26.23	5.812
303.15 K	815.28	1.4203	–	4.95
308.15 K	811.74	–	–	4.245
313.15 K	808.16	1.4156	–	3.654
318.15 K	804.56	–	–	3.17
323.15 K	800.92	1.4115	–	2.768
328.15 K	797.24	–	–	2.428
333.15 K	793.52	1.4077	–	2.141

CCCCCCCO [heptan-1-ol]
Conditions	mass density, [2] [kg/m3]	refractive index, [1]	surface tension liquid-gas, [2] [mN/m]	viscosity, [2] [mPa·s]
293.15 K	822.28	1.4236	–	6.887
298.15 K	818.79	1.422	26.23	5.812
303.15 K	815.28	1.4203	–	4.95
308.15 K	811.74	–	–	4.245
313.15 K	808.16	1.4156	–	3.654
318.15 K	804.56	–	–	3.17
323.15 K	800.92	1.4115	–	2.768
328.15 K	797.24	–	–	2.428
333.15 K	793.52	1.4077	–	2.141
